Here are results for five compounds from PubChem BioAssay AID1259407 (Chemical Carcinogenesis Research Information System (CCRIS), 2018).

In the data set the test system is CCRIS mutagenicity, Ames/micronucleus/aberration tests. The experiment in a line: CCRIS mutagenicity studies.
Setting [1] is: Test System: AMES SALMONELLA TYPHIMURIUM, Strain/Indicator: TA98, Metabolic Activation: NONE, Method: PREINCUBATION
Where [2] appears, read: Test System: AMES SALMONELLA TYPHIMURIUM, Strain/Indicator: TA100, Metabolic Activation: NONE, Method: PREINCUBATION

Active and inactive are the calls of the source. The rule behind the calls is not given here.

Turning to `Cc1ccccc1C(=O)Cl`, the mutagenic call runs as follows: under setting [1], “inactive; negative”; (Test System: AMES SALMONELLA TYPHIMURIUM, Strain/Indicator: TA98, Metabolic Activation: RAT LIVER S-9, PCB, Method: PREINCUBATION) “active; positive”; under setting [2], “inactive; negative”; (Test System: AMES SALMONELLA TYPHIMURIUM, Strain/Indicator: TA100, Metabolic Activation: RAT LIVER S-9, PCB, Method: PREINCUBATION) “active; positive”; (Test System: AMES SALMONELLA TYPHIMURIUM, Strain/Indicator: TA104, Metabolic Activation: NONE, Method: PREINCUBATION) “inactive; negative”; (Test System: AMES SALMONELLA TYPHIMURIUM, Strain/Indicator: TA104, Metabolic Activation: RAT LIVER S-9, PCB, Method: PREINCUBATION) “active; positive”. Besides, the mutagenic call by setting is: (Test System: E.COLI, Strain/Indicator: WP2 UVRA, Metabolic Activation: NONE, Method: PREINCUBATION) “active; positive”; (Test System: E.COLI, Strain/Indicator: WP2 UVRA, Metabolic Activation: RAT LIVER S-9, PCB, Method: PREINCUBATION) “active; positive”.

For the compound `CNS(=O)(=O)c1ccc(NC(C)=O)cc1`, the mutagenic call under setting [1] is “inactive; negative”; the mutagenic call (Test System: AMES SALMONELLA TYPHIMURIUM, Strain/Indicator: TA98, Metabolic Activation: RAT, LIVER, S-9, AROCLOR 1254, Method: PREINCUBATION) is “inactive; negative”; the mutagenic call under setting [2] is “inactive; negative”; the mutagenic call (Test System: AMES SALMONELLA TYPHIMURIUM, Strain/Indicator: TA100, Metabolic Activation: RAT, LIVER, S-9, AROCLOR 1254, Method: PREINCUBATION) is “inactive; negative”.

On to `Cc1cc(O)ccc1Cl`, for which the mutagenic call is “inactive; negative” (Test System: AMES SALMONELLA TYPHIMURIUM, Strain/Indicator: TA97, Metabolic Activation: HAMSTER, LIVER, S-9, AROCLOR 1254 (10%), Method: PREINCUBATION); “inactive; negative” (Test System: AMES SALMONELLA TYPHIMURIUM, Strain/Indicator: TA97, Metabolic Activation: HAMSTER, LIVER, S-9, AROCLOR 1254 (30%), Method: PREINCUBATION); “inactive; negative” (Test System: AMES SALMONELLA TYPHIMURIUM, Strain/Indicator: TA97, Metabolic Activation: NONE, Method: PREINCUBATION); “inactive; negative” (Test System: AMES SALMONELLA TYPHIMURIUM, Strain/Indicator: TA97, Metabolic Activation: NONE, Method: STANDARD PLATE); “inactive; negative” (Test System: AMES SALMONELLA TYPHIMURIUM, Strain/Indicator: TA97, Metabolic Activation: RAT, LIVER, S-9, AROCLOR 1254 (10%), Method: PREINCUBATION); “inactive; negative” (Test System: AMES SALMONELLA TYPHIMURIUM, Strain/Indicator: TA97, Metabolic Activation: RAT, LIVER, S-9, AROCLOR 1254 (30%), Method: PREINCUBATION). Moreover, the mutagenic call by setting is: (Test System: AMES SALMONELLA TYPHIMURIUM, Strain/Indicator: TA97, Metabolic Activation: RAT, LIVER, S-9, AROCLOR 1254, Method: STANDARD PLATE) “active; positive”; (Test System: AMES SALMONELLA TYPHIMURIUM, Strain/Indicator: TA98, Metabolic Activation: HAMSTER, LIVER, S-9, AROCLOR 1254 (10%), Method: PREINCUBATION) “inactive; negative”; (Test System: AMES SALMONELLA TYPHIMURIUM, Strain/Indicator: TA98, Metabolic Activation: HAMSTER, LIVER, S-9, AROCLOR 1254 (30%), Method: PREINCUBATION) “inactive; negative”; under setting [1], “inactive; negative”; (Test System: AMES SALMONELLA TYPHIMURIUM, Strain/Indicator: TA98, Metabolic Activation: NONE, Method: STANDARD PLATE) “inactive; negative”; (Test System: AMES SALMONELLA TYPHIMURIUM, Strain/Indicator: TA98, Metabolic Activation: RAT, LIVER, S-9, AROCLOR 1254 (10%), Method: PREINCUBATION) “inactive; negative”. Moreover, the mutagenic call was “inactive; negative” (Test System: AMES SALMONELLA TYPHIMURIUM, Strain/Indicator: TA98, Metabolic Activation: RAT, LIVER, S-9, AROCLOR 1254 (30%), Method: PREINCUBATION); “inactive; negative” (Test System: AMES SALMONELLA TYPHIMURIUM, Strain/Indicator: TA98, Metabolic Activation: RAT, LIVER, S-9, AROCLOR 1254, Method: STANDARD PLATE); “inactive; negative” (Test System: AMES SALMONELLA TYPHIMURIUM, Strain/Indicator: TA100, Metabolic Activation: HAMSTER, LIVER, S-9, AROCLOR 1254 (10%), Method: PREINCUBATION); “inactive; negative” (Test System: AMES SALMONELLA TYPHIMURIUM, Strain/Indicator: TA100, Metabolic Activation: HAMSTER, LIVER, S-9, AROCLOR 1254 (30%), Method: PREINCUBATION); “inactive; negative” under setting [2]; “inactive; negative” (Test System: AMES SALMONELLA TYPHIMURIUM, Strain/Indicator: TA100, Metabolic Activation: NONE, Method: STANDARD PLATE). Besides, the mutagenic call (Test System: AMES SALMONELLA TYPHIMURIUM, Strain/Indicator: TA100, Metabolic Activation: RAT, LIVER, S-9, AROCLOR 1254 (10%), Method: PREINCUBATION) is “inactive; negative”; the mutagenic call (Test System: AMES SALMONELLA TYPHIMURIUM, Strain/Indicator: TA100, Metabolic Activation: RAT, LIVER, S-9, AROCLOR 1254 (30%), Method: PREINCUBATION) is “inactive; negative”; the mutagenic call (Test System: AMES SALMONELLA TYPHIMURIUM, Strain/Indicator: TA100, Metabolic Activation: RAT, LIVER, S-9, AROCLOR 1254, Method: STANDARD PLATE) was “inactive; negative”; the mutagenic call (Test System: AMES SALMONELLA TYPHIMURIUM, Strain/Indicator: TA104, Metabolic Activation: NONE, Method: STANDARD PLATE) was “inactive; negative”; the mutagenic call (Test System: AMES SALMONELLA TYPHIMURIUM, Strain/Indicator: TA104, Metabolic Activation: RAT, LIVER, S-9, AROCLOR 1254, Method: STANDARD PLATE) was “inactive; negative”; the mutagenic call (Test System: AMES SALMONELLA TYPHIMURIUM, Strain/Indicator: TA1535, Metabolic Activation: HAMSTER, LIVER, S-9, AROCLOR 1254 (10%), Method: PREINCUBATION) was “inactive; negative”. In addition, the mutagenic call by setting is: (Test System: AMES SALMONELLA TYPHIMURIUM, Strain/Indicator: TA1535, Metabolic Activation: HAMSTER, LIVER, S-9, AROCLOR 1254 (30%), Method: PREINCUBATION) “inactive; negative”; (Test System: AMES SALMONELLA TYPHIMURIUM, Strain/Indicator: TA1535, Metabolic Activation: NONE, Method: PREINCUBATION) “inactive; negative”; (Test System: AMES SALMONELLA TYPHIMURIUM, Strain/Indicator: TA1535, Metabolic Activation: NONE, Method: STANDARD PLATE) “inactive; negative”; (Test System: AMES SALMONELLA TYPHIMURIUM, Strain/Indicator: TA1535, Metabolic Activation: RAT, LIVER, S-9, AROCLOR 1254 (10%), Method: PREINCUBATION) “inactive; negative”; (Test System: AMES SALMONELLA TYPHIMURIUM, Strain/Indicator: TA1535, Metabolic Activation: RAT, LIVER, S-9, AROCLOR 1254 (30%), Method: PREINCUBATION) “inactive; negative”; (Test System: AMES SALMONELLA TYPHIMURIUM, Strain/Indicator: TA1535, Metabolic Activation: RAT, LIVER, S-9, AROCLOR 1254, Method: STANDARD PLATE) “inactive; negative”. The mutagenic call (Test System: AMES SALMONELLA TYPHIMURIUM, Strain/Indicator: TA1537, Metabolic Activation: HAMSTER, LIVER, S-9, AROCLOR 1254 (30%), Method: PREINCUBATION) is “inactive; negative”; the mutagenic call (Test System: AMES SALMONELLA TYPHIMURIUM, Strain/Indicator: TA1537, Metabolic Activation: NONE, Method: PREINCUBATION) is “inactive; negative”; the mutagenic call (Test System: AMES SALMONELLA TYPHIMURIUM, Strain/Indicator: TA1537, Metabolic Activation: NONE, Method: STANDARD PLATE) is “inactive; negative”; the mutagenic call (Test System: AMES SALMONELLA TYPHIMURIUM, Strain/Indicator: TA1537, Metabolic Activation: RAT, LIVER, S-9, AROCLOR 1254 (30%), Method: PREINCUBATION) is “inactive; negative”; the mutagenic call (Test System: AMES SALMONELLA TYPHIMURIUM, Strain/Indicator: TA1537, Metabolic Activation: RAT, LIVER, S-9, AROCLOR 1254, Method: STANDARD PLATE) is “inactive; negative”.

With `O=S(=O)(O)Oc1ccc2cc3ccc4cccc5ccc(c2c1)c3c45`, the mutagenic call under setting [1] was “inactive; negative” and the mutagenic call (Test System: AMES SALMONELLA TYPHIMURIUM, Strain/Indicator: TA98, Metabolic Activation: RAT, LUNG, S-9, Method: PREINCUBATION) is “inactive; negative”.

For the compound `O=c1c2c(O)cccc2oc2cc3c(c(O)c12)[C@@H]1CCO[C@@H]1O3`, the mutagenic call is, setting by setting: (Test System: AMES SALMONELLA TYPHIMURIUM, Strain/Indicator: TA98, Metabolic Activation: RAT, LIVER, S-9, PHENOBARBITAL, Method: STANDARD PLATE) “inactive; negative”; (Test System: AMES SALMONELLA TYPHIMURIUM, Strain/Indicator: TA100, Metabolic Activation: RAT, LIVER, S-9, PHENOBARBITAL, Method: STANDARD PLATE) “inactive; negative”.
